Data on six molecules can be found in ChEMBL document CHEMBL1129279, “Structure-antigastrin activity relationships of new spiroglumide amido acid derivatives” (J Med Chem, 1996).

For assay [1], the species on record is Oryctolagus cuniculus.
For assay [2], the target named is Gastrin/cholecystokinin type B receptor (Cavia porcellus). Briefly: Inhibition of binding of [3H]N-Me-N-Leu-CCK-8 to cholecystokinin type B receptor in guinea pig brain cortex.
For assay [3], the target named is Cholecystokinin receptor (Homo sapiens) (UniProt P32239+P32238). Put plainly: Concentration required to inhibit CCK-A receptor/ Concentration required to inhibit CCK-B receptor. Type of assay: protein assay.
For assay [4], the target named is T1, Cholecystokinin receptor type A (Rattus norvegicus, UniProt P30551).
T1 sequence (P30551 whole entry): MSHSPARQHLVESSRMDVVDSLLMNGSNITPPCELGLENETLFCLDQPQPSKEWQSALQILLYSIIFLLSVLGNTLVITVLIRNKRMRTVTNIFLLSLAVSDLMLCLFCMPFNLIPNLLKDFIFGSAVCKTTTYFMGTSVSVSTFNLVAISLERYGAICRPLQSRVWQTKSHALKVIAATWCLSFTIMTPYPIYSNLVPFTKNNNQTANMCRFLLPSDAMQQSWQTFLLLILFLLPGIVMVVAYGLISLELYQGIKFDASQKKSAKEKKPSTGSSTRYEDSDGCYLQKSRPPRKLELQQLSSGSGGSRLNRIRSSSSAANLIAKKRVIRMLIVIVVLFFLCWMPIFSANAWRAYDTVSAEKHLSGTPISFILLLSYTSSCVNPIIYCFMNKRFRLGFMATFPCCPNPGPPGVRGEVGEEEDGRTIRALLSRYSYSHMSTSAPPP
Put plainly: Inhibition of [125I]CCK-8 binding to Cholecystokinin type A receptor in rat pancreas.

Sequence of Cholecystokinin receptor (Homo sapiens) (P32238 whole entry, looked up): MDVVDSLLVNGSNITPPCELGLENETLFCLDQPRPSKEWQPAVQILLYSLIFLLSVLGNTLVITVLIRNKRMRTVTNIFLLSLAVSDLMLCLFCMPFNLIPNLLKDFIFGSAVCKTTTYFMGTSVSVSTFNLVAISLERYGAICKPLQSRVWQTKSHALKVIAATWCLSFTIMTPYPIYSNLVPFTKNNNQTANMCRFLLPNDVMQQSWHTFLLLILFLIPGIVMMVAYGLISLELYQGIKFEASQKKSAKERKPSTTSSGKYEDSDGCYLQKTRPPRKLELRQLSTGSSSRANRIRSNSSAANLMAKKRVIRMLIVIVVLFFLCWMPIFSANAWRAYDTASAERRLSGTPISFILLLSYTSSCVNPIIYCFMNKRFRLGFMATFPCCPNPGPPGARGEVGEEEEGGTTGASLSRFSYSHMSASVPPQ
Sequence of Cholecystokinin receptor (Homo sapiens) (P32239 whole entry, looked up): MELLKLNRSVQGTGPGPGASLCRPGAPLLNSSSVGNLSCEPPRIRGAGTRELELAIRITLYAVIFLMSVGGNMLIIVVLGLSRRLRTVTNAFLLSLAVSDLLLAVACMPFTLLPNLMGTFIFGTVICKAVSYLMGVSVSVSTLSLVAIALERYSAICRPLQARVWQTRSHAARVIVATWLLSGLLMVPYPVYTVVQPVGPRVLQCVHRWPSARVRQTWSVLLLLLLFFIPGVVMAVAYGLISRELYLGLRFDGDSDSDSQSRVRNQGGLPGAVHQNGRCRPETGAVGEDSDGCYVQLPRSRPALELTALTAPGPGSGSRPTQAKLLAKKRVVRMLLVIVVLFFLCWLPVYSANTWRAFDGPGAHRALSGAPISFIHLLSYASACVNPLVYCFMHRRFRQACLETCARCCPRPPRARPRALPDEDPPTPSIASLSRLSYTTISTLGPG

For the molecule `O=C(CCC(NC(=O)c1cc(Cl)cc(Cl)c1)C(=O)N1CCC2(CCCC2)CC1)N[C@@H](Cc1ccccc1)C(=O)O` (stereo partly drawn), in assay [1], the IC50 entry is listed as “Not Active”.

In the case of `O=C(O)CC[C@@H](NC(=O)c1cc(Cl)cc(Cl)c1)C(=O)N1CCC2(CCCC2)CC1` [SPIROGLUMIDE], in assay [2], the IC50 was 1.4 µM. Further, the Ratio in assay [3] is 9.6.

`O=C(O)CC[C@@H](NC(=O)CCC(NC(=O)c1cc(Cl)cc(Cl)c1)C(=O)N1CCC2(CCCC2)CC1)C(=O)NC1[C@H]2C[C@@H]3C[C@@H](C[C@H]1C3)C2` (stereo partly drawn): in assay [1], the IC50 entry is “Not Active”.

As for `O=C(O)CC[C@H](NC(=O)CCC(NC(=O)c1cc(Cl)cc(Cl)c1)C(=O)N1CCC2(CCCC2)CC1)C(=O)Nc1cccc2ccccc12` (stereo partly drawn), in assay [3], the Ratio stood at 369. For the same molecule, the IC50 in assay [4] came out at 7.38 µM.

For `CN(C(=O)CCC(NC(=O)c1cc(Cl)cc(Cl)c1)C(=O)N1CCC2(CCCC2)CC1)[C@H](Cc1c[nH]c2ccccc12)C(=O)O` (stereo partly drawn), in assay [4], the IC50 was 3.4 µM.

In the case of `O=C(O)CC[C@@H](NC(=O)CCC(NC(=O)c1cc(Cl)cc(Cl)c1)C(=O)N1CCC2(CCCC2)CC1)C(=O)NCCC12C[C@H]3C[C@@H](C1)C[C@@H](C2)C3` (stereo partly drawn), the IC50 result in assay [1] is reported as “Not Active”.

Usually IC50 stands for the concentration that gives 50% inhibition.
